How the values were obtained:
[1] = molecular target: Cdc7/Dbf4 (Homo sapiens, UniProt O00311); assay: Cdc7 biochemical assay Method 2: Cdc7/Dbf4 Enzyme TR-FRET Assay measuring pS40MCM2; details: pS40 MCM2 peptide, 1 μM ATP, 25° C., 120 minutes, read-out: Biochemical Method 2 (pIC50) (converted)
Experimental: This protocol describes a method for assaying a compounds' ability to inhibit Cdc7 activity by measuring pS40MCM2 levels in a Cdc7/Dbf4 Enzyme TR-FRET Assay.
2.5 nM Cdc7/Dbf4 was incubated with 100 nM of biotin-labelled peptide 35-TDALTS(pS)PGRDLP in the presence of 1 μM ATP at 25° C. for 120 minutes. The phosphorylation of the peptide was detected using TR-FRET. Anti-Mcm2 (pS40) antibody, Terbium anti-rabbit secondary antibody and Streptavidin-Alexa Fluor488 form the detection system.

[2] = molecular target: T1, Cdc7 (Homo sapiens, UniProt O00311); assay: Cdc7 cell pharmacodynamics assay Method 2: pS40MCM2 levels in HCT116 cells; format: cell-based; design: endogenous in cells; details: 18 hours treatment, read-out: Biomarker Method 2 (pEC50) (converted)
Description: This protocol describes a method to investigate the inhibition of Cdc7 activity by measuring pS40MCM2 levels in cells, after treatment with compounds.
• HCT116 cells (ATCC, #CCL-247) • McCoys 5A with L-glutamine (Cellgro, #10-050-CV) • 10% FCS (Cellgro, #35-010-CV) • D-PBS without CaCl2 and MgCl2 (Cellgro, #21-031-CV) • Trypsin/EDTA (Cellgro, #25-052-CL) • BSA (Calbiochem, 126593) • Cell Extraction Buffer (Invitrogen FNN0011) • Protease inhibitor cocktail (Sigma P-2714) • PMSF 0.3M stock in DMSO (Sigma P7626) • Antibody—rabbit pMCM2 Ser40 (Abeam, AB133243) • Antibody—goat MCM2 (Bethyl #A300-122A) • Antibody—goat Anti Rabbit IgG HRP (Thermo, 31462) • SuperSignal ELISA Pico Chemiluminescent Substrate (Perbio Science UK Ltd 37069) • 10×PBS (Growcells, MRGF-6236) • Triton X100 (Sigma, P-T8787) • DMSO (Fisher, D128-1) • 2-Propanol (J. T. Baker, 9095-03) Method • Seed 1×10^6 HCT116 cells into each of two 175 cm^2 flask containing 30 mL Cell Growth Media and incubate at 37° C., 5% CO2 for 3 days. • Harvest the cells from one T175 cm^2 flask and count. • Dilute with Cell Growth Media to a cell density of 2×10^5. Dispense 100 μL to each well (20,000 HCT116 cells/well) of TC treated 96-well plate(s). • Allow cells to settle overnight in incubator set at 37° C. and 5% CO2. • Cell treatment: Transfer 0.25 μL/well from the compound plate to the wells of the cell plate(s). This is a 1:400 dilution of compound in the assay. • Once all cells are treated place the cells back to the incubator and incubate for 18 hours. • Dilute the capture antibody (total MCM2 #A300-122A) 1 in 250 in the required volume of PBS (5 mL per assay plate, plus 5 mL for dead volume) and add 50 μL to each well of a Hybond plate except wells A12 & B12. Seal the plate and incubate at room temperature fora minimum of 2 hours. • Defrost aliquot of Invitrogen Cell Extraction Buffer (FNN0011) on ice and supplement with appropriate volume of both Sigma protease inhibitor cocktail (P-2714) and PMSF (final cone 1 mM from a 1 M stock in DMSO). • After the 6 hour or 18 hour cell treatment time, tap out the media from the assay plates and place them in the −70° C. freezer for at least 5 minutes. • Flick out the remaining liquid in the previously prepared capture Ab plate(s) and add 200 μL 2% BSA per well. Incubate for 1 hour at room temperature. • Remove plates from freezer and add 20 μL of ice cold complete lysis buffer. Incubate cells for 30 minutes at 4° C. • Add 30 μL per well 2% BSA • At the end of the 1 hour incubation, wash the Capture/ELISA plate(s) with Wash Buffer on the BioTek plate washer. • Transfer 40 μL per well of the lysis plate(s) to the same wells in the Capture/ELISA plate. Incubate cells overnight at 4° C. • At the end of the overnight incubation, wash the ELISA plate(s) with Wash Buffer on BioTek plate washer. • Prepare Detection Antibody Buffer and dispense 50 μL to all wells of ELISA plate(s) except wells G1 & H1. Cover plate and incubate at room temperature for 2 hours with gentle shaking. • At the end of the 2 hour incubation, wash the ELISA plate(s) with Wash Buffer on the BioTek plate washer. • Prepare the Conjugated Antibody Buffer and dispense 50 μL to all wells of ELISA plate(s). • Cover the plate and incubate at room temperature for 1 hour with gentle shaking. • At the end of the 1 hour incubation, wash the ELISA plate(s) with Wash Buffer on the BioTek plate washer. • Prepare Substrate Buffer and dispense 50 μL to all wells of ELISA plate(s). • Incubate for a minimum of 10 minutes and read plates on the EnVision 2100 Multilabel Reader (Mirror: Luminescence (404) & Luminescence 700 (212); Measurement Height: 6.5 mm; Measurement Time: 0.2 s). Method 3

[3] = molecular target: T1, Cdc7; assay: Cdc7 cell pharmacodynamics assay Method 3: pS53MCM2 levels in SW48 cells; format: cell-based; design: endogenous in cells; host or cells: SW48; details: 6 hours treatment, read-out: Biomarker Method 3 (pEC50) (converted)
Description: This protocol describes a method to investigate the inhibition of Cdc7 activity by measuring pS53MCM2 levels in cells, after treatment with compounds.
• SW48 cells • RPMI 1640 (Sigma, R5886) • 10% FCS (Sera Laboratories International Ltd, EU000F Batch: 108005) • 100× L-Glutamine (Invitrogen, 25030-024) • D-Glucose Solution (10%) (Sigma, G8644) • HEPES Buffer Solution (Sigma, 83264) • Sodium Pyruvate (Sigma, S8636) • PBS (Fisger, BP399-4) • Trypsin/EDTA (Invitrogen 25300-054) • 2% BSA in PBS • Cell Extraction Buffer (Invitrogen FNN0011) • Protease inhibitor cocktail (Sigma P-2714) • PMSF 0.3M stock in DMSO (Sigma P7626) • Antibody—rabbit pMCM2 Ser53 (Bethyl #A300-756A) • Antibody—goat MCM2 (Bethyl #A300-122A) • Antibody—goat Anti Rabbit IgG HRP (Perbio Science UK Ltd 31462) • SuperSignal ELISA Pico Chemiluminescent Substrate (Perbio Science UK Ltd 37070) Method • Plate 30,000 SW48 cells per well in standard TC treated 96 well plate in 100 μL complete RPMI 1640 medium. • Allow cells to settle overnight in incubator set at 37° C. and 5% CO2. • Cell treatment: prepare a 384 well plate containing 80 μl PBS/well. The PBS should be at room temperature—to be referred to as intermediate plate. Transfer 2 μL of compound from mother plate to intermediate (daughter plate) 1:40 dilution, then 5 μL intermediate to cell (daughter) plate. • Once all cells are treated place the cells back to the incubator and incubate for 6 hours. • Dilute the capture antibody (total MCM2 #A300-122A) 1 in 250 in the required volume of PBS (5 mL per assay plate, plus 5 mL for dead volume) and add 50 μL to each well of a Hybond plate. Seal the plate and incubate at room temperature for a minimum of 2 hours. • Defrost aliquot of Invitrogen Cell Extraction Buffer (FNN0011) on ice and supplement with appropriate volume of both Sigma protease inhibitor cocktail (P-2714) and PMSF (final cone 1 mM from a 1 M stock in DMSO). • After the 6 hour cell treatment time, tap out the media from the assay plates and place them in the −80° C. freezer for at least 5 minutes. • Remove plates from freezer and add 20 μL of ice cold complete lysis buffer, with the multidrop. Incubate cells for 30 minutes at 4° C. • Add 80 μL per well 2% BSA. • Flick out the remaining liquid from the capture plate and transfer 80 μL from the lysis plate to the same wells in the capture/ELISA plate, using the Biomek. Cover with plate seal and incubate plates overnight at 4° C. • Wash plates with PBS, remove any residual remaining liquid and add 50 μL per well of pMCM2 Ser53 antibody (#A300-756A) diluted 1 in 100 in 2% BSA. Cover plate and incubate at room temperature for 2 hours with gentle shaking. • Wash plates with PBS, remove any residual remaining liquid and Incubate with 50 μL goat anti rabbit antibody (1 in 800 dilution in 2% BSA), for 1 hour at room temperature. • Wash plates with PBS, remove any residual remaining liquid and add 50 μL mixed SuperSignal Pico substrate. • Incubate each plate for 5 minutes at room temperature shielding the plates from direct light (with a cover plate). Read plates with the luminescent detection. Results

Chain of Cdc7/Dbf4 (O00311 whole entry): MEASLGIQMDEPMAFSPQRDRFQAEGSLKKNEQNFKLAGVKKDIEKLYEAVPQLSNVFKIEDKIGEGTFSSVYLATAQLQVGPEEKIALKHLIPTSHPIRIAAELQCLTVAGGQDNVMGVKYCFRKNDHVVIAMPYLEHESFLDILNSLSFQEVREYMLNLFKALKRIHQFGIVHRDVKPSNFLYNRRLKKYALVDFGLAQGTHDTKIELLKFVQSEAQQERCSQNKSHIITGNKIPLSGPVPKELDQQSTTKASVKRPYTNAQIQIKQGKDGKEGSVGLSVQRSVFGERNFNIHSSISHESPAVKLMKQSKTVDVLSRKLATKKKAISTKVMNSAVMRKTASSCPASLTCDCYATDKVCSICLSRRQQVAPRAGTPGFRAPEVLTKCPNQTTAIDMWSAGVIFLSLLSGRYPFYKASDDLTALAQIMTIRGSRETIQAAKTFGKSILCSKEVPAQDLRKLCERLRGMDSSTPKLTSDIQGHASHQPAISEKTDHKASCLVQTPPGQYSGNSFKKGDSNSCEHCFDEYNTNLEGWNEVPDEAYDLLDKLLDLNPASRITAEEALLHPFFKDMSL
Chain of Cdc7/Dbf4 (Q9UBU7 whole entry partner): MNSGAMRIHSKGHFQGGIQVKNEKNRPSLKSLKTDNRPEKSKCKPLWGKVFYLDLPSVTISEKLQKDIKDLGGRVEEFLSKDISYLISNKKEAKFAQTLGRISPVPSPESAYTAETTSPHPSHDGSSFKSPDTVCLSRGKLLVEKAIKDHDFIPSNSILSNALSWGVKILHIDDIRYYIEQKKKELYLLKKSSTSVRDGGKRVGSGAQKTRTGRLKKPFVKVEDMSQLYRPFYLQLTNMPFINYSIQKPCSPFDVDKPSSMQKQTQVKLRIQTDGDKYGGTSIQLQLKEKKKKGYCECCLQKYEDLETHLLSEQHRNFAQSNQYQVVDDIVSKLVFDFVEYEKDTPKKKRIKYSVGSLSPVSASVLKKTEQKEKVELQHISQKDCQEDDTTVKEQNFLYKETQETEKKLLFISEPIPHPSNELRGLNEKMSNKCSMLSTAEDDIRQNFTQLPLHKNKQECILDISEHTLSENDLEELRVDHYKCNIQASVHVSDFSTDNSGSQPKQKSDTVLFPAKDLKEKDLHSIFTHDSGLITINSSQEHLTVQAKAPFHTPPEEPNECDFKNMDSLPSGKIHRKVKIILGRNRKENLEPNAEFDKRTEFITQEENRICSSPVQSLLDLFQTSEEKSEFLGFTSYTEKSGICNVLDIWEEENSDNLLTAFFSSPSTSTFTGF
T1 sequence (O00311 whole entry): as the sequence (O00311 whole entry) above
T1 sequence (Q9UBU7 whole entry partner): as the sequence (Q9UBU7 whole entry partner) above

Compound	IC50 [1]	EC50 [2]	EC50 [3]
O=c1[nH]c(-c2cn[nH]c2C(F)(F)F)nc(N2CCNCC(F)(F)C2)c1Cl [Compound 45, 5-chloro-4-(6,6-difluoro-1,4-diazepan-1-yl)-2-[5-(trifluoromethyl)-1H-pyrazol-4-yl]-1H-pyrimidin-6-one]	0.00195 µM	0.0447 µM	1.17 µM
CC1(C)CNCCN1c1nc(-c2cn[nH]c2C(F)(F)F)[nH]c(=O)c1Cl [Compound 46, 5-chloro-4-(2,2-dimethylpiperazin-1-yl)-2-[5-(trifluoromethyl)-1H-pyrazol-4-yl]-1H-pyrimidin-6-one]	0.00166 µM	0.151 µM	–
O=c1[nH]c(-c2cn[nH]c2C(F)(F)F)nc(N2CCOCC2)c1Cl [Compound 47, 5-chloro-4-morpholino-2-[5-(trifluoromethyl)-1H-pyrazol-4-yl]-1H-pyrimidin-6-one]	0.000776 µM	0.038 µM	1.17 µM
Cc1[nH]ncc1-c1nc(N2CCNC[C@H]2C)c(Cl)c(=O)[nH]1 [Compound 48, 5-chloro-4-[(2R)-2-methylpiperazin-1-yl]-2-(5-methyl-1H-pyrazol-4-yl)-1H-pyrimidin-6-one]	0.00224 µM	0.457 µM	–
O=c1[nH]c(-c2c[nH]c3ncccc23)nc(N2CCNCC(F)(F)C2)c1Cl [Compound 52, 5-chloro-4-(6,6-difluoro-1,4-diazepan-1-yl)-2-(1H-pyrrolo[2,3-b]pyridin-3-yl)-1H-pyrimidin-6-one]	0.00708 µM	0.851 µM	5.75 µM
C[C@@H]1COCCN1c1nc(-c2c[nH]c3ncccc23)[nH]c(=O)c1Cl [Compound 53, 5-chloro-4-[(3R)-3-methylmorpholin-4-yl]-2-(1H-pyrrolo[2,3-b]pyridin-3-yl)-1H-pyrimidin-6-one]	0.00129 µM	0.0331 µM	0.955 µM

— US11766434B2, “Pyrimidinone derivatives as CDC7 inhibitors” (Cancer Research Technology Limited, priority 2016, dated 2023)
